Results: patent publication US11524968B2, “Heterocyclic compound as a protein kinase inhibitor” (HK inno.N Corporation, priority 2017, dated 2022)

Biological target: JAK1 (Homo sapiens (Human), UniProt P23458)
Experiment: Analysis of JAK1 activity inhibition ability (ADP-Glo Kinase Assay)
Format: biochemical
Conditions: JAK1 enzyme, ADP-Glo luminescence, ATP 250 uM, IRS-itide substrate, 30° C. 40 minutes; read-out: IC50
Outline: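 ADP-Glo luminescence read-out of ADP production, with IC50 taken as the concentration halving JAK1 activity relative to control. Enzyme was incubated 40 min at 30 °C with compound, IRS-itide (40 ng/mL) and ATP (250 uM), concentrations as prepared in pH 7.5 Tris-HCl/MgCl2/BSA/DTT buffer.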

Sequence of JAK1 (P23458 whole entry): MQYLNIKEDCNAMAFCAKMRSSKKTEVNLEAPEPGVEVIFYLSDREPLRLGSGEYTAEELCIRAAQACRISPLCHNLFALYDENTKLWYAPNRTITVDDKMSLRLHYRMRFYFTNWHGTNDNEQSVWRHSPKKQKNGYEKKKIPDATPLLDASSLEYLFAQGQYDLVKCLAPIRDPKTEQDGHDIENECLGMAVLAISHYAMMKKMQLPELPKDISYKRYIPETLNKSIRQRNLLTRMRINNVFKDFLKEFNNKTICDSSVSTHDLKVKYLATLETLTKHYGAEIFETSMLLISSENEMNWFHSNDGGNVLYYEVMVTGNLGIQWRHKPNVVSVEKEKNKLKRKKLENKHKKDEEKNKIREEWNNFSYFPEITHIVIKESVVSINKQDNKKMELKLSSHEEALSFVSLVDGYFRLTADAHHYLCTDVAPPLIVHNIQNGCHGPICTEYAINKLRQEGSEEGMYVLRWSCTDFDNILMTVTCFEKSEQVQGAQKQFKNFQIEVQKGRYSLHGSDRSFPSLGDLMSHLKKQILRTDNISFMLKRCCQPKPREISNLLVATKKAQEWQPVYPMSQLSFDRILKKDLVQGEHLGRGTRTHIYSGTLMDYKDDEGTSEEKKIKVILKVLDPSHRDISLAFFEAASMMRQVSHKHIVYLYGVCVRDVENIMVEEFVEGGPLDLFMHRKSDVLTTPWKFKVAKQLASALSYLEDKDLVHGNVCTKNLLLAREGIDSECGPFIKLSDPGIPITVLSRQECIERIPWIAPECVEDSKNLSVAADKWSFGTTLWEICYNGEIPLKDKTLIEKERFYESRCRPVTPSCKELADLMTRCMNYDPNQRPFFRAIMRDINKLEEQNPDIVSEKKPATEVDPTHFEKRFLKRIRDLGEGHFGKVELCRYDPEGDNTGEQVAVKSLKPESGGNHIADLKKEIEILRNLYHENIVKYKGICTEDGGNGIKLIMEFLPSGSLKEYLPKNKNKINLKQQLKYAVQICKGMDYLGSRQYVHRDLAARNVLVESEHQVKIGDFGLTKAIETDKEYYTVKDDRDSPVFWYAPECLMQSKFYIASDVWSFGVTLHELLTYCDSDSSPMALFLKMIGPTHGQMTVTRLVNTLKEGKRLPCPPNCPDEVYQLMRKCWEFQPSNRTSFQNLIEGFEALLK

| SMILES | IC50 [nM] |
| --- | --- |
| CCCS(=O)(=O)Nc1ccc(-c2cc(NC(=O)C3CC3)nc3[nH]ccc23)cc1C [Example 65, N-(4-(3-methyl-4-(propylsulfonamido)phenyl)-1H-pyrrolo[2,3-b]pyridin-6-yl)cyclopropanecarboxamide] | < 20 |
| N#Cc1cc(NS(=O)(=O)CC2(C#N)CC2)ccc1-c1cc(NC(=O)C2CC2)nc2[nH]ccc12 [Example 147, N-(4-(2-cyano-4-(((1-cyanocyclopropyl)methyl)sulfonamido)phenyl)-1H-pyrrolo[2,3-b]pyridin-6-yl)cyclopropanecarboxamide] | > 200 |
| CCc1cc(NS(=O)(=O)CC2(CC#N)CC2)ccc1-c1cc(NC(=O)C2CC2)nc2[nH]ccc12 [Example 110, N-(4-(4-(((1-(cyanomethyl)cyclopropyl)methyl)sulfonamido)-2-ethylphenyl)-1H-pyrrolo[2,3-b]pyridin-6-yl)cyclopropanecarboxamide] | < 20 |
| CCCCS(=O)(=O)Nc1ccc(-c2cc(NC(=O)C3CC3)nc3[nH]ccc23)cc1 [Example 6, N-(4-(4-(butylsulfonamido)phenyl)-1H-pyrrolo[2,3-b]pyridin-6-yl)cyclopropanecarboxamide] | < 20 |
| CCCS(=O)(=O)Nc1ccc(-c2cc(NC(=O)C3CC3)nc3[nH]ccc23)nc1F [Example 150, N-(4-(6-fluoro-5-(propylsulfonamido)pyridin-2-yl)-1H-pyrrolo[2,3-b]pyridin-6-yl)cyclopropanecarboxamide] | > 200 |
| O=C(Cc1ccc(-c2cc(NC(=O)C3CC3)nc3[nH]ccc23)cc1)NCC(F)(F)F [Example 537, N-(4-(4-(2-oxo-2-((2,2,2-trifluoroethyl)amino)ethyl)phenyl)-1H-pyrrolo[2,3-b]pyridin-6-yl)cyclopropanecarboxamide] | 20 to 200 |
| CCS(=O)(=O)Nc1ccc(-c2cc(NC(=O)C3CC3)nc3[nH]ccc23)cc1C(F)(F)F [Example 98, N-(4-(4-(ethylsulfonamido)-3-(trifluoromethyl)phenyl)-1H-pyrrolo[2,3-b]pyridin-6-yl)cyclopropanecarboxamide] | 20 to 200 |
| CC1CN(C(=O)c2ccc(S(C)(=O)=O)cc2)CC=C1c1cc(NC(=O)C2CC2)nc2[nH]ccc12 (centres unmarked) [Example 354, N-(4-(3-methyl-1-(4-(methylsulfonyl)benzoyl)-1,2,3,6-tetrahydropyridin-4-yl)-1H-pyrrolo[2,3-b]pyridin-6-yl)cyclopropanecarboxamide] | 20 to 200 |
| CCCCNC(=O)N1CCC(c2cc(NC(=O)C3CC3)nc3[nH]ccc23)CC1 [Example 653, N-butyl-4-(6-(cyclopropanecarboxamido)-1H-pyrrolo[2,3-b]pyridin-4-yl)piperidine-1-carboxamide] | > 200 |
| Cc1nc(C)c(C(=O)N2CC=C(c3cc(NC(=O)C4CC4)nc4[nH]ccc34)C(C)C2)s1 (centres unmarked) [Example 307, N-(4-(1-(2,4-dimethylthiazole-5-carbonyl)-3-methyl-1,2,3,6-tetrahydropyridin-4-yl)-1H-pyrrolo[2,3-b]pyridin-6-yl)cyclopropanecarboxamide] | > 200 |
| O=C(Nc1cc(C2=CCC(NS(=O)(=O)C3CC3)CC2)c2cc[nH]c2n1)C1CC1 (centres unmarked) [Example 154, N-(4-(4-(cyclopropanesulfonamido)cyclohex-1-en-1-yl)-1H-pyrrolo[2,3-b]pyridin-6-yl)cyclopropanecarboxamide] | 20 to 200 |
| O=C(Nc1cc(N2CC3CCC(C2)N3S(=O)(=O)CCCC(F)(F)F)c2cc[nH]c2n1)C1CC1 [Example 666, N-(4-(8-((4,4,4-trifluorobutyl)sulfonyl)-3,8-diazabicyclo[3.2.1]octan-3-yl)-1H-pyrrolo[2,3-b]pyridin-6-yl)cyclopropanecarboxamide] | > 200 |
| Cc1c(NC(=O)C2CC2)nc2[nH]ccc2c1C1=CCN(C(=O)CC#N)CC1 [Example 289, N-(4-(1-(2-cyanoacetyl)-1,2,3,6-tetrahydropyridin-4-yl)-5-methyl-1H-pyrrolo[2,3-b]pyridin-6-yl)cyclopropanecarboxamide] | > 200 |
| N#CCCN1CC=C(c2cc(NC(=O)C3CC3)nc3[nH]ccc23)C1 [Example 485, N-(4-(1-(2-cyanoethyl)-2,5-dihydro-1H-pyrrol-3-yl)-1H-pyrrolo[2,3-b]pyridin-6-yl)cyclopropanecarboxamide] | 20 to 200 |
| N#C[C@H]1CC1C(=O)N1CC=C(c2cc(NC(=O)C3CC3)nc3[nH]ccc23)CC1 (stereo in doubt) [Example 267, N-(4-(1-((1S,2S)-2-cyanocyclopropane-1-carbonyl)-1,2,3,6-tetrahydropyridin-4-yl)-1H-pyrrolo[2,3-b]pyridin-6-yl)cyclopropanecarboxamide] | < 20 |
| CC1CN(C(=O)c2ccc3c(c2)OCO3)CC=C1c1cc(NC(=O)C2CC2)nc2[nH]ccc12 (centres unmarked) [Example 326, N-(4-(1-(benzo[d][1,3]dioxole-5-carbonyl)-3-methyl-1,2,3,6-tetrahydropyridin-4-yl)-1H-pyrrolo[2,3-b]pyridin-6-yl)cyclopropanecarboxamide] | 20 to 200 |

| SMILES | IC50 [nM] |
| --- | --- |
| CCc1cc(-c2cc(NC(=O)C3CC3)nc3[nH]ccc23)ccc1NS(=O)(=O)CC [Example 124, N-(4-(3-ethyl-4-(ethylsulfonamido)phenyl)-1H-pyrrolo[2,3-b]pyridin-6-yl)cyclopropanecarboxamide] | < 20 |
| CCCCS(=O)(=O)Oc1ccc(-c2cc(NC(=O)C3CC3)nc3[nH]ccc23)cc1 [Example 632, 4-(6-(cyclopropanecarboxamido)-1H-pyrrolo[2,3-b]pyridin-4-yl)phenyl butane-1-sulfonate] | 20 to 200 |
| O=C(Nc1cc(-c2ccc(NC3CN(C(=O)NCC(F)(F)F)C3)cc2)c2cc[nH]c2n1)C1CC1 [Example 514, 3-((4-(6-(cyclopropanecarboxamido)-1H-pyrrolo[2,3-b]pyridin-4-yl)phenyl)amino)-N-(2,2,2-trifluoroethyl)azetidine-1-carboxamide] | > 200 |
| CC1CN(C(=O)Cc2ccccc2)CC=C1c1cc(NC(=O)C2CC2)nc2[nH]ccc12 (centres unmarked) [Example 365, N-(4-(3-methyl-1-(2-phenylacetyl)-1,2,3,6-tetrahydropyridin-4-yl)-1H-pyrrolo[2,3-b]pyridin-6-yl)cyclopropanecarboxamide] | 20 to 200 |
| O=C(Nc1nc(-c2ccc(NS(=O)(=O)c3ccc(F)c(F)c3)c(F)c2)c2cc[nH]c2n1)C1CC1 [Example 205, N-(4-(4-((3,4-difluorophenyl)sulfonamido)-3-fluorophenyl)-7H-pyrrolo[2,3-d]pyrimidin-2-yl)cyclopropanecarboxamide] | 20 to 200 |
| O=C(Nc1cc(-c2ccc(CC(=O)N3CCSCC3)cc2)c2cc[nH]c2n1)C1CC1 [Example 560, N-(4-(4-(2-oxo-2-thiomorpholinoethyl)phenyl)-1H-pyrrolo[2,3-b]pyridin-6-yl)cyclopropanecarboxamide] | 20 to 200 |
| O=C(NCC(F)(F)F)Nc1ccc(-c2cc(NC(=O)C3CC3)nc3[nH]ccc23)cc1 [Example 435, N-(4-(4-(3-(2,2,2-trifluoroethyl)ureido)phenyl)-1H-pyrrolo[2,3-b]pyridin-6-yl)cyclopropanecarboxamide] | 20 to 200 |
| C[C@@H]1CN(C(=O)c2ccnc(F)c2)CC=C1c1cc(NC(=O)C2CC2)nc2[nH]ccc12 [Example 395, (S)—N-(4-(1-(2-fluoroisonicotinoyl)-3-methyl-1,2,3,6-tetrahydropyridin-4-yl)-1H-pyrrolo[2,3-b]pyridin-6-yl)cyclopropanecarboxamide] | < 20 |
| N#CCC1(CS(=O)(=O)N2CC=C(c3cc(NC(=O)C4CC4)nc4[nH]ccc34)CC2)CC1 [Example 171, N-(4-(1-(((1-(cyanomethyl)cyclopropyl)methyl)sulfonyl)-1,2,3,6-tetrahydropyridin-4-yl)-1H-pyrrolo[2,3-b]pyridin-6-yl)cyclopropanecarboxamide] | 20 to 200 |
| O=C(Nc1cc(-c2ccc(CNC(=O)N3CCOCC3)cc2)c2cc[nH]c2n1)C1CC1 [Example 579, N-(4-(6-(cyclopropanecarboxamido)-1H-pyrrolo[2,3-b]pyridin-4-yl)benzyl)morpholine-4-carboxamide] | > 200 |
| CC1CN(C(=O)c2ccc3c(c2)OCCO3)CC=C1c1cc(NC(=O)C2CC2)nc2[nH]ccc12 (centres unmarked) [Example 325, N-(4-(1-(2,3-dihydrobenzo[b][1,4]dioxine-6-carbonyl)-3-methyl-1,2,3,6-tetrahydropyridin-4-yl)-1H-pyrrolo[2,3-b]pyridin-6-yl)cyclopropanecarboxamide] | 20 to 200 |
| C[C@@H]1CN(C(=O)C(C#N)=Cc2cccs2)CC=C1c1cc(NC(=O)C2CC2)nc2[nH]ccc12 [Example 403, (S)—N-(4-(1-(2-cyano-3-(thiophen-2-yl)acryloyl)-3-methyl-1,2,3,6-tetrahydropyridin-4-yl)-1H-pyrrolo[2,3-b]pyridin-6-yl)cyclopropanecarboxamide] | 20 to 200 |
| N#CCC(=O)NC1CC=C(c2cc(NC(=O)C3CC3)nc3[nH]ccc23)CC1 (centres unmarked) [Example 247, N-(4-(4-(2-cyanoacetamido)cyclohex-1-en-1-yl)-1H-pyrrolo[2,3-b]pyridin-6-yl)cyclopropanecarboxamide] | 20 to 200 |
| CCS(=O)(=O)Nc1ccc(-c2cc(NC(=O)C3CC3)nc3c2ccn3C)cc1F [Example 60, N-(4-(4-(ethylsulfonamido)-3-fluorophenyl)-1-methyl-1H-pyrrolo[2,3-b]pyridin-6-yl)cyclopropanecarboxamide] | > 200 |
| CC1CN(C(=O)OC(C)(C)C)CC=C1c1cc(NC(=O)C2CC2)nc2[nH]ccc12 (centres unmarked) [Example 456, tert-butyl 4-(6-(cyclopropanecarboxamido)-1H-pyrrolo[2,3-b]pyridin-4-yl)-3-methyl-3,6-dihydropyridine-1 (2H)-carboxylate] | > 200 |
| Cc1c(NC(=O)C2CC2)nc2[nH]ccc2c1C1=CCN(C(=O)OC(C)(C)C)CC1 [Example 457, tert-butyl 4-(6-(cyclopropanecarboxamido)-5-methyl-1H-pyrrolo[2,3-b]pyridin-4-yl)-3,6-dihydropyridine-1 (2H)-carboxylate] | > 200 |
